Test results from PMC9570898, “Comparing Variants of the Cell-Penetrating Peptide sC18 to Design Peptide-Drug Conjugates” (Molecules, 2022).
No end group written: not given here.

Key:
Format in all cases: cell-based, human
HeLa cells = assay: Cellular uptake by flow cytometry in HeLa cells; details: 1 and 10 µM CF-labeled peptide, 30 min, 37 °C, serum-free medium, triplicate n = 3
Experimental: (§1) Monolayer cellular uptake was quantified using flow cytometry. Cells were seeded onto a 24-well plate (HeLa: 90,000, HEK293: 100,000 and MCF-7 130,000 cells per well) and grown to 80–90% confluency. Then, cells were incubated with the labeled peptides/conjugates in a serum-free medium at 37 °C for various incubation times, and subsequently washed twice with PBS and detached with indicator-free trypsin resuspended in an indicator-free serum-containing medium. The cell suspension was transferred into a 96-well FACS plate and fluorescence was then measured by a Guava easyCyte flow cytometer (Merck, Darmstadt, Germany).The blue laser was used for all measurements, FSC (1137–1538), SSC (3020–4086), Grn-B (647–875) and Red-B (694–939). Cellular autofluorescence of untreated control cells was subtracted.

HEK-293 spheroids = assay: Flow cytometry of HEK-293 spheroids; details: 10 µM CF-labeled peptides, 30 min or 1 h
Experimental: For the preparation and seeding of spheroids, cells were washed and trypsinized as described above. Cells were transferred into a fresh 15 mL centrifuge tube and centrifuged for 5 min at 300× g and rt. The supernatant was removed carefully and the pellet was resuspended in an appropriate medium supplemented with FBS. Cells were counted and a cell mixture was prepared, which would be sufficient for 100 drops (3 mL). Within this mixture a total amount of 1.5 × 10^6 cells (HEK-293 and HeLa cells) and 20% (v/v) methylcellulose (1.2 mg/mL) were required. The missing volume was filled up with an appropriate medium containing FBS; 30 μL drops were pipetted into the inverted lid of a petri dish (15,000 cells per drop), the bottom was covered with PBS and spheroids were grown in hanging drops for two or three days at 37 °C and 5% CO2, respectively.
For flow cytometry studies with tumor spheroids, the spheroids were prepared and grown as described above (4.7). […] After the spheroids started to fall apart, 850 μL of medium with FBS (indicator free) was added and the spheroids were resuspended to generate a homogenous cell suspension; 200 μL of each sample were transferred into a fresh round-bottom 96-well plate and analyzed on a Guava® easyCyte flow cytometer (Merck, Darmstadt, Germany). […]

HEK293 cells [1] = assay: Cytotoxicity (resazurin) assay in HEK293 cells; details: 24 h
Experimental: For cell viability assay, cells were (15,000 HeLa, 17,000 MCF-7 and 12,000 HFF-1 cells per well) seeded onto a 96-well plate and grown to 80–90% confluency. Cells were incubated with several peptide concentrations in a serum-free growth medium for 24 h under standard growth conditions. For the positive control, cells were treated with 70% EtOH for 7 min. After washing with DPBS, resazurin solution (10% in serum-free media, v/v) was incubated with the cells for 1 h under standard growth conditions. The cell viability was determined relative to untreated cells by measurement of the resorufin product at 595 nm (λex = 550 nm) on a Tecan infinite M200 plate reader (Tecan Group AG, Männedorf, Switzerland).
Cells were cultured and incubated at pH 7.4 for 24 h with different concentrations of peptide solutions. Untreated cells served as negative control; cells treated with 70% ethanol as positive control. Values from the positive control were subtracted from all data, and the untreated cells were set to 100%; assays were performed with n = 3 in triplicate.

HEK293 cells [2] = assay: Cellular uptake by flow cytometry in HEK293 cells; details: 1 and 10 µM CF-labeled peptide, 30 min, 37 °C, serum-free medium, triplicate n = 3
Experimental: as §1

## RLRKLLRKFLRK-NH2 [sC18*^R,L]
HeLa cells
  cellular uptake: highly significant and enhanced internalization
HEK-293 spheroids
  accumulation in spheroids: most efficient variants
HEK293 cells [1]
  concentration at which toxic effect started: 50 µM
HEK293 cells [2]
  cellular uptake: highly significant and enhanced internalization
